# Article PMC10004634 (PLOS ONE, 2023)
# Like-named read-outs stand apart in the source and are kept apart here.
# How the values were obtained:
# [1] = target: T1, RPS6KA5(Kin.Dom.1-N-terminal) (Homo sapiens, UniProt O75582); assay: biochemical; parameters: KINOMEscan scanMAX competition binding, DNA-tagged kinases, qPCR read-out, percent control at 300 nM
# T1 construct: Kin.Dom.1-N-terminal
# [2] = target: T2, p38-alpha (Homo sapiens, UniProt Q16539); assay: biochemical; parameters: KINOMEscan scanMAX competition binding, DNA-tagged kinases, qPCR read-out, percent control at 300 nM
# T2 construct: gene MAPK14
# [3] = target: T3, ICK (Homo sapiens, UniProt Q9UPZ9); assay: biochemical; parameters: KINOMEscan scanMAX competition binding, DNA-tagged kinases, qPCR read-out, percent control at 300 nM
# T3 construct: gene CILK1
# T3 sequence (Q9UPZ9 1-632): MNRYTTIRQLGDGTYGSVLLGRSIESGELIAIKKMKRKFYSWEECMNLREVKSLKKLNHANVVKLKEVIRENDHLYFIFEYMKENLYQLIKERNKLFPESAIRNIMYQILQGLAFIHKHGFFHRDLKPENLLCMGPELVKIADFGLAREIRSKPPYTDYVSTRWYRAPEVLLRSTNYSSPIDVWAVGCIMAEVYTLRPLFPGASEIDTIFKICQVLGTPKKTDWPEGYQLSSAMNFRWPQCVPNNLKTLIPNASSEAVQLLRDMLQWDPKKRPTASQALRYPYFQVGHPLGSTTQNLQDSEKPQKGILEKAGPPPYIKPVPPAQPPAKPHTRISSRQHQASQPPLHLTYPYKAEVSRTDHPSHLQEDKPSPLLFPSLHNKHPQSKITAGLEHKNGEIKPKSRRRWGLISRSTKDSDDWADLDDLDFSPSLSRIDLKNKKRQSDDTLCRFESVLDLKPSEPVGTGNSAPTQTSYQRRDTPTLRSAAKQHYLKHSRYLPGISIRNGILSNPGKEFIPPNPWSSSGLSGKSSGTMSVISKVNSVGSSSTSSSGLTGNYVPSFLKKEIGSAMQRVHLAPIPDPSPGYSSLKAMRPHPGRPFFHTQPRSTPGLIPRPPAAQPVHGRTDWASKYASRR
# [4] = target: T4, TXK (Homo sapiens, UniProt P42681); assay: Z'-Lyte kinase inhibition assay; type: biochemical; parameters: purchased Thermo Fisher Scientific (Invitrogen Z'-Lyte service); conditions: 60 min preincubation
# T4 sequence (P42681 1-527): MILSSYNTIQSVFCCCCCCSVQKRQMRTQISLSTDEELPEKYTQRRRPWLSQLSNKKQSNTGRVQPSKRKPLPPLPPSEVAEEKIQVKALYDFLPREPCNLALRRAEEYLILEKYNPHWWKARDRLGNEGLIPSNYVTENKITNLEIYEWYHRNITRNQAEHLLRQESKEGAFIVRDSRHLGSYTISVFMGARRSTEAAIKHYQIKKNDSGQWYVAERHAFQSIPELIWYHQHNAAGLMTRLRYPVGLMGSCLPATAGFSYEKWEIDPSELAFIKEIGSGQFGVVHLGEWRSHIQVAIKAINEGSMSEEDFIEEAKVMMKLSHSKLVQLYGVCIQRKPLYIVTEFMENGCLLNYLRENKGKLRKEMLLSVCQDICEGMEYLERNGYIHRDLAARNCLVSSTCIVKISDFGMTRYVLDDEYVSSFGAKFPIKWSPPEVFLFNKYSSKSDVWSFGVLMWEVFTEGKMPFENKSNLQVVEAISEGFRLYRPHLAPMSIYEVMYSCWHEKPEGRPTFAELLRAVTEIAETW
# Procedure: In all the assays, each test compound was preincubated with peptide/kinase mixture or kinase/antibody mixture for 60 min at room temperature before adding the ATP solution or AlexaFluor labeled Tracer to initiate the 60-min incubation of the reactants.
# [5] = target: T5, NDR1 (Homo sapiens, UniProt Q15208); assay: biochemical; parameters: KINOMEscan scanMAX competition binding, DNA-tagged kinases, qPCR read-out, percent control at 300 nM
# T5 construct: gene STK38
# [6] = target: PKMYT1 (Homo sapiens, UniProt Q99640); assay: biochemical; parameters: KINOMEscan scanMAX competition binding, DNA-tagged kinases, qPCR read-out, percent control at 300 nM
# [7] = target: T6, RPS6KA4(Kin.Dom.1-N-terminal) (Homo sapiens, UniProt O75676); assay: biochemical; parameters: KINOMEscan scanMAX competition binding, DNA-tagged kinases, qPCR read-out, percent control at 300 nM
# T6 construct: Kin.Dom.1-N-terminal
# [8] = target: T7, MRCKB (Homo sapiens, UniProt Q9Y5S2); assay: biochemical; parameters: KINOMEscan scanMAX competition binding, DNA-tagged kinases, qPCR read-out, percent control at 300 nM
# T7 construct: gene CDC42BPB
# [9] = target: IRAK1 (Homo sapiens, UniProt P51617); assay: biochemical; parameters: KINOMEscan scanMAX competition binding, DNA-tagged kinases, qPCR read-out, percent control at 300 nM
# [10] = target: T8, AMPK-alpha2 (Homo sapiens, UniProt P54646); assay: biochemical; parameters: KINOMEscan scanMAX competition binding, DNA-tagged kinases, qPCR read-out, percent control at 300 nM
# T8 construct: gene PRKAA2
# [11] = target: TAOK3 (Homo sapiens, UniProt Q9H2K8); assay: biochemical; parameters: KINOMEscan scanMAX competition binding, DNA-tagged kinases, qPCR read-out, percent control at 300 nM
# [12] = read-out: Percent control / Tirabrutinib
# [13] = read-out: Percent control / Zanubrutinib
# [14] = read-out: Percent control / Acalabrutinib
# [15] = read-out: Percent control / Ibrutinib
# T2 sequence (Q16539 whole entry): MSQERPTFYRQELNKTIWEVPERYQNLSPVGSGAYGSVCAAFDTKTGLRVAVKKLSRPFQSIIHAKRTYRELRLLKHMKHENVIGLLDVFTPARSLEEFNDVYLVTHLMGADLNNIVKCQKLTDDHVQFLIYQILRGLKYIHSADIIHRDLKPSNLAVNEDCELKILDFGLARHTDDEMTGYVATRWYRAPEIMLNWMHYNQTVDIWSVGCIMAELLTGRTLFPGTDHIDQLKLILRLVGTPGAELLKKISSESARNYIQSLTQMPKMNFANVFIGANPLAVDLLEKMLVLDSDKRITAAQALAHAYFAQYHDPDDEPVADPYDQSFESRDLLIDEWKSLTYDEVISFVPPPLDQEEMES
# Sequence of IRAK1 (P51617 whole entry): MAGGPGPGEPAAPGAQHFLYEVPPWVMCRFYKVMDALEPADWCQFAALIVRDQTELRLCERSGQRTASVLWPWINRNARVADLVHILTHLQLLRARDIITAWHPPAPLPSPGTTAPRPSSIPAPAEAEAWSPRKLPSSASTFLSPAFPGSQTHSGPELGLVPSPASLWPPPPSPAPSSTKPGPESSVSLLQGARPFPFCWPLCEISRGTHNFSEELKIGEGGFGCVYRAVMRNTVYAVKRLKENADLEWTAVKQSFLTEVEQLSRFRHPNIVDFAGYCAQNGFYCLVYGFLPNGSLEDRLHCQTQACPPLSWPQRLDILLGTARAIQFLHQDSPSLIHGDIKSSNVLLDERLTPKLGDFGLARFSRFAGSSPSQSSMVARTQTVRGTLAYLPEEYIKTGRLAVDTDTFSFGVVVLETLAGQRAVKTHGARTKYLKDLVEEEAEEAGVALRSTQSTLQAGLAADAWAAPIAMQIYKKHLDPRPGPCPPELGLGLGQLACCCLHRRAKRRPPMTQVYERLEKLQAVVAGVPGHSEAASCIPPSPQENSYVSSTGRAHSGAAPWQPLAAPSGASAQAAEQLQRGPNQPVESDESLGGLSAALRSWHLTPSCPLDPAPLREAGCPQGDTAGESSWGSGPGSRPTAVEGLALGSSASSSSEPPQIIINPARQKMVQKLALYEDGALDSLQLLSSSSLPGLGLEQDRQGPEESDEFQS
# T5 sequence (Q15208 whole entry): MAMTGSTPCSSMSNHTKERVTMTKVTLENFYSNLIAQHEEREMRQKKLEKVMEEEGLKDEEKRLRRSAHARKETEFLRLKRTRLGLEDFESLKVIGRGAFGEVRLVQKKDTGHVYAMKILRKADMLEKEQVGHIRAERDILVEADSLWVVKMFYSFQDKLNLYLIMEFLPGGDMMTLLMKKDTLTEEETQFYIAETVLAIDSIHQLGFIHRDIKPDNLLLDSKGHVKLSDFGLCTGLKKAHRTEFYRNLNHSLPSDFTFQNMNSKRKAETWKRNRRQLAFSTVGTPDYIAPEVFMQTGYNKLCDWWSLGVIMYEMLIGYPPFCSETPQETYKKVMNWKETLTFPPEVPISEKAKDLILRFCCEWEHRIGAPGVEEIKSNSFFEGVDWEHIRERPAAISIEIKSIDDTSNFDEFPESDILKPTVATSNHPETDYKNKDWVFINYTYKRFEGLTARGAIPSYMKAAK
# T8 sequence (P54646 whole entry): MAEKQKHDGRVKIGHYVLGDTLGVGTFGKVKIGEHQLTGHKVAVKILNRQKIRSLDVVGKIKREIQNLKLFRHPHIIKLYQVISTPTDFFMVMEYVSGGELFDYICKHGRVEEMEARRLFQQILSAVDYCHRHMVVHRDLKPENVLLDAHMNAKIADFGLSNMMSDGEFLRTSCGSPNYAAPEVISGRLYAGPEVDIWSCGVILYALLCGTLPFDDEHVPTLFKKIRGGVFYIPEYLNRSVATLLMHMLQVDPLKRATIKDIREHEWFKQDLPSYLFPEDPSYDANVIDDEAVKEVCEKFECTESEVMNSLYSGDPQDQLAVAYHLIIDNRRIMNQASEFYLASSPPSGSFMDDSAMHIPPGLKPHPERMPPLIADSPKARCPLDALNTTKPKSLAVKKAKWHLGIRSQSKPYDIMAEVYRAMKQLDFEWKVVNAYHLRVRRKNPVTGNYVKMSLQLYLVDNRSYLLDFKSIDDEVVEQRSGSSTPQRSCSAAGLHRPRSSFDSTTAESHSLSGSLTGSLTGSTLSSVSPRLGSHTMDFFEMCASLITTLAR
# Sequence of TAOK3 (Q9H2K8 whole entry): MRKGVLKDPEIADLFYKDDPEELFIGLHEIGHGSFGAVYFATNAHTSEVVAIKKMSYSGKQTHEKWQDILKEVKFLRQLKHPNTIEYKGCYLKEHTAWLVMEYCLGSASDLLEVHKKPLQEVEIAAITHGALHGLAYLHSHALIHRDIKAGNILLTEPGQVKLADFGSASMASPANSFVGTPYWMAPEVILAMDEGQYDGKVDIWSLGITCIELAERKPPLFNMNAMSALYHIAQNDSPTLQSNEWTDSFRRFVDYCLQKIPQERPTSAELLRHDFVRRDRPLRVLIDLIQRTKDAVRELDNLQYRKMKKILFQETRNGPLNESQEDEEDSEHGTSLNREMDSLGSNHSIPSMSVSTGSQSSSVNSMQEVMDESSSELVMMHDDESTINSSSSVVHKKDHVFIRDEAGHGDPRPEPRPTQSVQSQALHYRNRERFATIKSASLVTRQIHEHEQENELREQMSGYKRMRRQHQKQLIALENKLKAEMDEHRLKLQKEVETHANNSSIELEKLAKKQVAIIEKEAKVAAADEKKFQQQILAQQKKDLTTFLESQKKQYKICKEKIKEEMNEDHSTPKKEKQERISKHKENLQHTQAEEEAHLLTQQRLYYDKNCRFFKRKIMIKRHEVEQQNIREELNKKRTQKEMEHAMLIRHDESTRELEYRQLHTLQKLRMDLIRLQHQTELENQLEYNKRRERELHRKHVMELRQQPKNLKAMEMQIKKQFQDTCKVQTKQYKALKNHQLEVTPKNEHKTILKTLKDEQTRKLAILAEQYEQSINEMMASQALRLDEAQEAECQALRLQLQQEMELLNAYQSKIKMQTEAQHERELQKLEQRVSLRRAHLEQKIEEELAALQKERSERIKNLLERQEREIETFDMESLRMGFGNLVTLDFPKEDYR
# T1 sequence (O75582 whole entry): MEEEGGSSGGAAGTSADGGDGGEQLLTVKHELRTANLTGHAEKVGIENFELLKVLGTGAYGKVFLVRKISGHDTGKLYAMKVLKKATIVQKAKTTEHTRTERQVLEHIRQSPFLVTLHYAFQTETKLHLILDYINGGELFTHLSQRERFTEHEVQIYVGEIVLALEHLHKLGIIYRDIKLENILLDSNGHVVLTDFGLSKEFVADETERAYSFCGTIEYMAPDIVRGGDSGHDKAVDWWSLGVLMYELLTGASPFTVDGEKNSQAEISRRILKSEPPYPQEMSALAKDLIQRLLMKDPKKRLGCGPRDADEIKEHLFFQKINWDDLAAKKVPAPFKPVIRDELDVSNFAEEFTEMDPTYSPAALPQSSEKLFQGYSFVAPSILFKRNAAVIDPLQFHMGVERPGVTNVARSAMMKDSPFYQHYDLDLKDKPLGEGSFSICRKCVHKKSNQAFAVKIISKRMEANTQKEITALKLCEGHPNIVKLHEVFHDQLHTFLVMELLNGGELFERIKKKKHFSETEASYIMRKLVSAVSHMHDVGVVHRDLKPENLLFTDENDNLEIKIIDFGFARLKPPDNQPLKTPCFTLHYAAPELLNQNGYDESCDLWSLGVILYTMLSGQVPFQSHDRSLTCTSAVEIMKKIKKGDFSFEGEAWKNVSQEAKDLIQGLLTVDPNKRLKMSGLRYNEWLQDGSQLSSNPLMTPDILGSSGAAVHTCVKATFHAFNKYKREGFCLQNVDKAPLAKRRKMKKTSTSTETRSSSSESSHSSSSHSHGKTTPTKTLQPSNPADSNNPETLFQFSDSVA
# Sequence of PKMYT1 (Q99640 whole entry): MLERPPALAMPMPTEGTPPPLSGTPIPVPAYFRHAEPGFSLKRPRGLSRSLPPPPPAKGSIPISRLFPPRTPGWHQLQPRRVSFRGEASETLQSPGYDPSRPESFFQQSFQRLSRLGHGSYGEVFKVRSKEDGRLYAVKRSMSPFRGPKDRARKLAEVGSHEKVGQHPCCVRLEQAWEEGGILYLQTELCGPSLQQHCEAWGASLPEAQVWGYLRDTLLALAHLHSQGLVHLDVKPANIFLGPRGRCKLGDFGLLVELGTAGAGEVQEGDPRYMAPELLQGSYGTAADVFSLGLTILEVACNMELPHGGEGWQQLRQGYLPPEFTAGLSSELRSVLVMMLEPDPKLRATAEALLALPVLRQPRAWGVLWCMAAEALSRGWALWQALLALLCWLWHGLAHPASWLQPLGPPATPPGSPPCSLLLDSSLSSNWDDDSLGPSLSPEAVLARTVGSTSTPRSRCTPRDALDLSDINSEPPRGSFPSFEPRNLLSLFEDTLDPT
compound,measurement,setting,value
CC#CC(=O)N1CC[C@@H](n2c(=O)n(-c3ccc(Oc4ccccc4)cc3)c3c(N)ncnc32)C1 [Tirabrutinib],remaining binding at 0.3 µM,[1]; [12],80%
same,remaining binding at 0.3 µM,[2]; [12],92%
same,remaining binding at 0.3 µM,[3]; [12],60%
same,IC50,[4],54.5 nM
C=CC(=O)N1CCC([C@@H]2CCNc3c(C(N)=O)c(-c4ccc(Oc5ccccc5)cc4)nn32)CC1 [Zanubrutinib],remaining binding at 0.3 µM,[1]; [13],100%
same,remaining binding at 0.3 µM,[5]; [13],97%
same,remaining binding at 0.3 µM,[6]; [13],81%
same,remaining binding at 0.3 µM,[2]; [13],97%
same,remaining binding at 0.3 µM,[7]; [13],100%
same,remaining binding at 0.3 µM,[8]; [13],90%
same,remaining binding at 0.3 µM,[9]; [13],100%
same,IC50,[4],4.59 nM
CC#CC(=O)N1CCC[C@H]1c1nc(-c2ccc(C(=O)Nc3ccccn3)cc2)c2c(N)nccn12 [Acalabrutinib],remaining binding at 0.3 µM,[5]; [14],97%
same,remaining binding at 0.3 µM,[6]; [14],94%
same,remaining binding at 0.3 µM,[10]; [14],96%
same,remaining binding at 0.3 µM,[2]; [14],85%
same,remaining binding at 0.3 µM,[3]; [14],82%
same,remaining binding at 0.3 µM,[11]; [14],99%
same,remaining binding at 0.3 µM,[8]; [14],93%
same,remaining binding at 0.3 µM,[9]; [14],90%
same,IC50,[4],273 nM
C=CC(=O)N1CCC[C@@H](n2nc(-c3ccc(Oc4ccccc4)cc3)c3c(N)ncnc32)C1 [Ibrutinib],remaining binding at 0.3 µM,[10]; [15],97%
same,remaining binding at 0.3 µM,[2]; [15],98%
same,remaining binding at 0.3 µM,[7]; [15],87%
same,remaining binding at 0.3 µM,[3]; [15],61%
same,remaining binding at 0.3 µM,[11]; [15],98%
same,remaining binding at 0.3 µM,[9]; [15],89%
